Entries after “also recorded” stand apart in the source; their conditions may differ.
Legend:
[1] = test system: CLN3^Δex7/8 neural stem cells; test: Lysotracker staining of CLN3^Δex7/8 neural stem cells; assay type: cell-based, human
Description: The cells were stained with Lysotracker, a fluorescent dye that is enriched in acidic lysosomes and emits red fluorescence. The fluorescence intensity of the stained cells was then analyzed using flow cytometry.

CLN3^Δex7/8 neurons [2] = test: Mitochondrial morphology with OMP25-GFP, laser confocal microscope; assay type: cell-based, human
Source text: Studies have shown that healthy mitochondria have a short stick-like morphology, with large potential differences across the mitochondrial membrane, which allows efficient generation of ATP that maintains normal cellular function. Damaged mitochondria undergo the process of mitochondrial fission, in which the mitochondria split into a punctate morphology, encapsulated by autophagosome, and transported into lysosomes for degradation. To detect the presence of abnormal mitochondrial morphology in CLN3^Δex7/8 human neurons, a Lentivirus plasmid with green fluorescent protein labeled OMP25 was constructed and used to infect wild-type and CLN3^Δex7/8 human neurons
To test the effect of compound G on mitochondrial homeostasis in CLN3^Δex7/8 neurons, fluorescently labeled mitochondrial outer membrane protein OMP25-GFP was overexpressed in neurons, and the morphological changes of mitochondria were observed by laser confocal microscope. […] The amount of ATP generation in the same number of neurons was tested using Cell Titer Glo reagent.

Cln3 KO mice [3] = test: Rotarod test (roller experiment); assay type: in vivo, mouse; conditions: 4th day of testing
Description: First, the roller experiment was conducted. Treatment of Compound G was continuously provided to the mice after weaned on day 21. When the wild-type mice, the Cln3 KO mice and the Compound G-treated Cln3 KO mice reached 4-5 months of age, roller training for 3 days was conducted, and test was conducted on the 4th day for the motor ability of the mice on the roller.

p62 = p62 transcription (qRT-PCR) and p62 protein level in human neurons; assay type: cell-based
Description: (§1) The cells in the cell-culture dish were collected, extracted using AxyPrep Total RNA Mini Prep Kit or Qiagen AxyPrep Total RNA Mini Prep Kit, and the extracted RNA concentration is measured using Nanodrop; the extracted mRNA was reverse transcribed into cDNA by Transgen's EasyScript® One-Step gDNA Removal and cDNA Synthesis SuperMix and the primers used for reverse transcription were Oligo dT primers; the completion of reverse transcription followed by qRT-PCR reaction through PerfectStart™ Green qPCR SuperMix to detect the expression of the target gene; the qRT-PCR reaction was performed on the Bio-Rad CFX96 Real-Time PCR system; see Table 2 and Table 3 for the 20 μL qRT-PCR reaction system and reaction procedures; data analysis was performed in Prism 7 software using the 2^−ΔΔCt process with GAPDH as internal reference for relative quantification of the expression of the target gene.
FIG. 41: Compound G increased intracellular p62 protein levels. (a) 24 hours after treatment of human neurons with Compound G or after KEAP1 knockdown, transcriptional levels of the p62 gene were detected by qRT-PCR (n=3). (b) 24 hours after treatment of human neurons with Compound G or after KEAP1 knockdown, intracellular p62 protein levels were detected by Western blotting and band intensity statistics (n=3) were performed. […]

CLN3^Δex7/8 neurons [4] = test: Mitochondrial autophagy level (mtDNA/nDNA after CCCP and Baf-A1); assay type: cell-based, human; conditions: CCCP-induced mitochondrial damage
Description: The medium in the cell culture plate was aspirated and the cells were digested after washing once with dPBS. After stopping the digestion with cell medium, the supernatant was removed by centrifugation and the cells were resuspended with 200 μL dPBS. DNeasy®) Blood & Tissue Kit was used to extract DNA from cells. Then, referring to the qRT-PCR system and reaction procedure in Tables 2 and 3, the qRT-PCR reaction was performed using the extracted DNA instead of the cDNA. Data analysis was performed in Prism 7 software using the 2^ΔΔCt process with genomic gene b2M as internal reference for relative quantification of the number of mitochondrial sequences MinArc. Primers for determining intracellular mitochondria number were as follows:
Damaged mitochondria within a cell can be eliminated through an autophagic process named mitochondrial autophagy. Functional defects in autophagy affect the elimination of damaged mitochondria, which in turn disrupts mitochondrial homeostasis in neurons. After inducing mitochondrial damage in wild-type and CLN3^Δex7/8 neurons using the mitochondrial uncoupler CCCP, and then inhibiting the elimination of damaged mitochondria by Baf-A1, the increases of intracellular mitochondrial number (mtDNA/nDNA) after Baf-A1 treatment can represent the intracellular mitochondrial autophagy level.

[5] = test system: KEAP1-knockdown CLN3^Δex7/8 human neurons; test: Lysotracker staining of KEAP1-knockdown CLN3^Δex7/8 human neurons; assay type: cell-based; conditions: added to KEAP1-knockdown CLN3^Δex7/8 human neurons
Description: shRNA knockdown experiments of genes such as CLN3 and KEAP1 were conducted in induced neural stem cells and neurons, with specific steps as follows: the neural stem cells were planted into a desired cell culture plate to a cell density of about 50% or the neural stem cells were differentiated into human neurons in the cell culture plate according to experimental requirements; the shRNA lentiviral plasmids of CLN3 and KEAP1 genes and the control lentiviral plasmid expressing non-target sequences were selected from the MISSIOH human shRNA library of Sigma Aldrich, and the sequences were shown in Table 6; Lentiviruses was packaged in 10 cm cell culture plates and virus-containing supernatant was collected by filtration according to the method described above; the supernatant and lentivirus concentrate (40% PEG-8000 and 1.2M sodium chloride dissolved in dPBS solution, pH˜ 7.0) were mixed in a volume ratio of 1:3, and incubated overnight at 4° C. with slow rotation; centrifugation at 13000 g for 30 minutes at 4° C., and the supernatant was discarded, and the pellet was resuspended in 1 mL of fresh cell culture medium and added to the target cells; after 8 hours of infection, the virus was aspirated and fresh cell culture medium was added; 48 hours after infection, 1.5 μg/mL puromycin was added for selection for 72 hours, and the surviving cells were used for subsequent experiments. […]

mouse neural stem cells = test: qRT-PCR of autophagy and lysosome-related genes in mouse neural stem cells; assay type: cell-based; conditions: 6 hours
Description: as §1
After treating primary (a) neural stem cells and (b) neurons of Cln3 KO) mice for 6 hours, the mRNA was extracted from the cells, reverse-transcribed into cDNA, and transcription levels of autophagy- and lysosome-related genes were detected using qRT-PCR (n=3).
It was speculated from this that the known target FXR of Compound G was expressed at low or no levels in neural lineage cells. […]

Cln3 KO mice [6] = test: Immunohistochemical staining of SCMAS in Cln3 KO mouse brain; assay type: in vivo; conditions: Cln3 KO mice treated from 21 days to 2 months of age

For C/C=C1\C(=O)C[C@H]2[C@@H]3CCC4=CC(=O)CC[C@]4(C)[C@H]3CC[C@]12C [Compound G, (Z)-guggulsterone], the “Lysotracker staining in neural stem cells” value [1] was “significantly improve the Lysotracker staining”, the damaged punctate mitochondria (CLN3^Δex7/8 neurons [2]) was “significantly reduce the occurrence of damaged punctate mitochondria; also recorded: significantly reduce the appearance of the damaged mitochondria” and the “falling time from the roller” value (Cln3 KO mice [3]) was “significantly extended”. The p62 protein level (p62; 24 hours, Western blotting) was “increase the p62 protein level”, the “transcription level of p62” value (p62; incubation for 24 hours, qRT-PCR) was “significantly increase” and the “mitochondrial autophagy (increase of mitochondrial number mtDNA/nDNA after Baf-A1)” value (CLN3^Δex7/8 neurons [4]) was “rescue mitochondrial autophagy”. For the same compound, the “Lysotracker average fluorescence intensity” value [5] was “could not further increase”, the “expression level of the autophagy and lysosome-related genes” value (mouse neural stem cells) was “no significant change” and the “substances (SCMAS) abnormally stored in the brains” value (Cln3 KO mice [6]) was “alleviate the amount of the substances abnormally stored in the brains of Cln3 KO mice to a certain extent”.

From patent publication US20250152605A1, “METHOD AND DRUG FOR TREATING NEURONAL CEROID LIPOFUSCINOSIS” (priority 2021, published 2025)
